Where two headings read alike, the source gives them in different places.
Assays:
[1] = cited from earlier work
[2] = high calorie, high fat breakfast; cited from earlier work
[3] = system: prothrombin time (PT); experiment: Food effect study: PT; format: in vivo, human; settings: 3 h after 10 mg oral tablet
[4] = oral; cited from earlier work
[5] = clinical; settings: human, plasma, oral, 10 mg; for AUC(0-t): AUC(0,t) Adjusted geometric mean; for AUC(0-inf): AUC(0,∞) Adjusted geometric mean; for Cmax: Cmax Adjusted geometric mean
[6] = clinical; settings: human, plasma; for half-life: oral; for AUC(0-inf) / AUC(0-t) / Cmax / Tmax: po; for Tmax: Median tmax, range over doses
[7] = system: thromboembolic events; settings: patients who had received total knee or hip replacement surgery; cited from earlier work
[8] = system: activated partial thromboplastin time (aPTT); experiment: Food effect study: aPTT; format: in vivo, human; settings: 3 h after 10 mg oral tablet
[9] = system: modified prothrombin time (mPT); experiment: Single ascending-dose study: modified prothrombin time; format: in vivo, human
[10] = system: international normalized ratio (INR); experiment: Food effect study: INR; format: in vivo, human; settings: for INR Mean (SD) change from baseline: 3 h after 10 mg oral tablet
[11] = Food effect study: safety assessments; format: in vivo, human
[12] = system: international normalized ratio (INR); experiment: Single ascending-dose study: INR; format: in vivo, human; settings: for mean maximum INR: 0–24 h post-dose
[13] = system: activated partial thromboplastin time (aPTT); experiment: Single ascending-dose study: aPTT; format: in vivo, human
[14] = Single ascending-dose study: template bleeding time; format: in vivo, human; settings: between pre-dose and 3.5 h post-dose
[15] = Single ascending-dose study: safety assessments; format: in vivo, human
[16] = 10 mg, high fat, high calorie meal vs fasted
[17] = system: venous thrombosis; settings: at doses that preserved haemostasis; cited from earlier work
[18] = single 10 mg dose following standard high calorie, high fat meal
[19] = single 20 mg dose following a similar meal

Compound: O=C(NC[C@H]1CN(c2ccc(N3CCOCC3=O)cc2)C(=O)O1)c1ccc(Cl)s1 [rivaroxaban]
- increase in AUC(0,∞) with food [1, 18]: 28%
- increase in Cmax with food [1, 18]: 41%
- increase in AUC(0,∞) with food [1, 19]: 23%
- increase in Cmax with food [1, 19]: 74%

Compound: [H]/N=C(/N)c1ccc(NCc2nc3cc(C(=O)N(CCC(=O)O)c4ccccn4)ccc3n2C)cc1 [dabigatran]
- effect of food on extent of absorption [2]: did not affect the extent of absorption

Compound: COc1ccc(-n2nc(C(N)=O)c3c2C(=O)N(c2ccc(N4CCCCC4=O)cc2)CC3)cc1 [apixaban, 1-(4-methoxyphenyl)-7-oxo-6-(4-(2-oxopiperidin-1-yl)phenyl)-4,5,6,7-tetrahydro-1H -pyrazolo[3,4-c]pyridine-3-carboxamide]
- PT Mean (SD) ([3]; fasted, n = 23): 14.99 (1.24)
- PT Mean (SD) change from baseline ([3]; fasted, n = 23): 1.39 (0.89)
- PT Mean (SD) ([3]; fed, n = 22): 14.66 (0.97)
- PT Mean (SD) change from baseline ([3]; fed, n = 22): 1.30 (0.85)
- dose proportionality of Cmax, AUC(0,∞) and AUC(0,t) (0.5–50 mg): increased approximately proportionally to dose
- Inter-subject variability, %CV for Cmax and AUC (across all doses, regardless of formulation): approximately 30%
- bioavailability [4]: ~50%
- AUC(0-t) ([5]; 10 mg fasted): 1730 ng·h/mL
- AUC(0-t) ([5]; 10 mg fed): 1810 ng·h/mL
- AUC(0-inf) ([5]; 10 mg fasted): 1790 ng·h/mL
- AUC(0-inf) ([5]; 10 mg fed): 1870 ng·h/mL
- Cmax ([5]; 10 mg fasted): 151 ng/mL
- Cmax ([5]; 10 mg fed): 165 ng/mL
- half-life ([5]; half-life, food effect study): ~11.5 h
- half-life ([6]; 10 mg, half-life, single doses, overall conclusion): ~12 h
- half-life ([6]; t1/2, range, doses that provided sufficient data to characterize the terminal elimination phase (i.e. 5–50 mg)): 7 to 27 h
- AUC(0-inf) ([6]; 0.5 mg): 61.9 ng·h/mL
- AUC(0-t) ([6]; 0.5 mg): 52.7 ng·h/mL
- Cmax ([6]; 0.5 mg): 9.1 ng/mL
- AUC(0-inf) ([6]; 1 mg): 174 ng·h/mL
- AUC(0-t) ([6]; 1 mg): 163 ng·h/mL
- Cmax ([6]; 1 mg): 23.5 ng/mL
- AUC(0-inf) ([6]; 2.5 mg): 438 ng·h/mL
- AUC(0-t) ([6]; 2.5 mg): 421 ng·h/mL
- Cmax ([6]; 2.5 mg): 52.5 ng/mL
- AUC(0-inf) ([6]; 5 mg): 1020 ng·h/mL
- AUC(0-t) ([6]; 5 mg): 977 ng·h/mL
- Cmax ([6]; 5 mg): 105 ng/mL
- AUC(0-inf) ([6]; 10 mg): 1300 ng·h/mL
- AUC(0-t) ([6]; 10 mg): 1270 ng·h/mL
- Cmax ([6]; 10 mg): 176 ng/mL
- AUC(0-inf) ([6]; 25 mg): 4010 ng·h/mL
- AUC(0-t) ([6]; 25 mg): 3870 ng·h/mL
- Cmax ([6]; 25 mg): 365 ng/mL
- AUC(0-inf) ([6]; 50 mg): 7560 ng·h/mL
- AUC(0-t) ([6]; 50 mg): 7100 ng·h/mL
- Cmax ([6]; 50 mg): 685 ng/mL
- Tmax ([6]; oral solution (0.5–2.5 mg)): 1.5 to 1.8 h
- Tmax ([6]; oral tablet (5–50 mg)): 2.5 to 3.3 h
- prevention of thromboembolic events vs enoxaparin 40 mg daily [7]: superior to enoxaparin
- aPTT Mean (SD) ([8]; fasted, n = 23): 32.96 (3.59)
- aPTT Mean (SD) change from baseline ([8]; fasted, n = 23): 3.05 (2.59)
- aPTT Mean (SD) ([8]; fed, n = 22): 31.55 (3.02)
- aPTT Mean (SD) change from baseline ([8]; fed, n = 22): 2.90 (2.21)
- mean % change from baseline in maximum mPT ([9]; 2.5 mg dose): 35.0%
- mean % change from baseline in maximum mPT ([9]; 5 mg dose): 42.9%
- mean % change from baseline in maximum mPT ([9]; 10 mg dose): 87.1%
- mean % change from baseline in maximum mPT ([9]; 25 mg dose): 135.3%
- mean % change from baseline in maximum mPT ([9]; 50 mg dose): 187.1%
- peak mPT increase from baseline ([9]; after a 50 mg dose): 2.9 fold
- individual INR (highest) ([10]; 10 mg, fed and fasted): ≤ 2.0
- time for INR, aPTT and PT to return to baseline ([10]; 10 mg, fed and fasted): ≤ 24 h
- INR Mean (SD) change from baseline ([10]; fasted, n = 23): 0.23 (0.13)
- INR Mean (SD) change from baseline ([10]; fed, n = 22): 0.20 (0.12)
- elevated alanine transaminase level ([11]; one subject, discontinued, 10 mg): 3 × upper limit of normal [ULN]
- elevations in aspartate aminotransferase and gamma-glutamyl transferase levels ([11]; same one subject, 10 mg): < 2 × ULN
- bleeding-related AEs ([11]; single 10 mg doses): no bleeding-related AEs
- serious AEs or major bleeding-related events ([11]; single 10 mg doses, fed and fasted): no serious AEs or major bleeding-related events
- mean % change from baseline in maximum INR ([12]; 10 mg dose): 19.5%
- mean % change from baseline in maximum INR ([12]; 25 mg dose): 44.1%
- mean maximum INR ([12]; 25 mg dose): 1.45
- mean % change from baseline in maximum INR ([12]; 50 mg dose): 55.8%
- mean maximum INR ([12]; 50 mg dose): 1.71
- peak INR increase from baseline ([12]; after a 50 mg dose): 1.6 fold
- time until changes in pharmacodynamic parameters were evident ([12]; following a single dose, clotting assay parameters (INR, aPTT and mPT)): less than 1 h
- mean % change from baseline in maximum aPTT ([13]; 25 mg dose): 25.7%
- mean maximum aPTT ([13]; 25 mg dose, baseline 30.4 s): 38.2 s
- mean % change from baseline in maximum aPTT ([13]; 50 mg dose): 23.1%
- mean maximum aPTT ([13]; 50 mg dose, baseline 28.6 s): 35.1 s
- peak aPTT increase from baseline ([13]; after a 50 mg dose): 1.2 fold
- change in template bleeding time [14]: ≤ 1 min
- subjects with bleeding-related AEs ([15]; haematochezia at 25 mg (one), haematuria at 50 mg (two), all mild): Three subjects had bleeding-related AEs
- serious AEs or major bleeding-related events ([15]; single oral doses 0.5–50 mg): no serious AEs or major bleeding-related events
- dose-limiting AEs ([15]; single oral doses of up to 50 mg): No dose-limiting AEs were observed
- increase in median tmax with food [16]: 1 h
- antithrombotic effects [17]: potent antithrombotic effects

From PMC3558798 (British Journal of Clinical Pharmacology, 2012)
